The source of these data is BindingDB's records for doi:10.1021/acs.jmedchem.6b01065 (2017).

This assay has as its target T1, Mineralocorticoid receptor (Homo sapiens, UniProt P08235).
T1 sequence (P08235 whole entry): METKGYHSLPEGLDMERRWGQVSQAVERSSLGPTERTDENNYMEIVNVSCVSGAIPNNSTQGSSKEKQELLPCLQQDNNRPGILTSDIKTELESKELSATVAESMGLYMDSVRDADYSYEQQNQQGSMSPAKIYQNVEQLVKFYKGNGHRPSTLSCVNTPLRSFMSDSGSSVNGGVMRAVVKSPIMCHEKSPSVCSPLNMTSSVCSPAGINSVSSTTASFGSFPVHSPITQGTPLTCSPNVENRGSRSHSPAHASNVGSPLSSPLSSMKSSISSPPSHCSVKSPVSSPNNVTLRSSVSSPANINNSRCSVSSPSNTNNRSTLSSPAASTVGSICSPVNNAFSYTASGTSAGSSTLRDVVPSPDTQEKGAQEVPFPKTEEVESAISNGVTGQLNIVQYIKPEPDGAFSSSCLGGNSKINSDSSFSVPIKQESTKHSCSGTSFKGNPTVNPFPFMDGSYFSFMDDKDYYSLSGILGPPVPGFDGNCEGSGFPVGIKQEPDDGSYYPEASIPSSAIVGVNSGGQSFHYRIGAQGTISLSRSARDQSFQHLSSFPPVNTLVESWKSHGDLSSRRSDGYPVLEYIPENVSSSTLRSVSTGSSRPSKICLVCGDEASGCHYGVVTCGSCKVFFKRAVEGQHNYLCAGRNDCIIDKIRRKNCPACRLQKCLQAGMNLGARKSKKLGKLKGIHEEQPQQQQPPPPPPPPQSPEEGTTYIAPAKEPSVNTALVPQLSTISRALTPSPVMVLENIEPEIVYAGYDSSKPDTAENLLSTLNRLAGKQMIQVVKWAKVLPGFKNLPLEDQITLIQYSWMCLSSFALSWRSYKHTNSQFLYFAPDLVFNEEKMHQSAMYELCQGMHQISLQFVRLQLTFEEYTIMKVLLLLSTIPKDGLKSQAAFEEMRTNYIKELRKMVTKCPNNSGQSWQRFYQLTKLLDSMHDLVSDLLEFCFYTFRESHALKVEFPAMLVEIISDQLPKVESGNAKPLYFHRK
The experiment in a line: Antagonist activity at Gal4-fused human MR LBD (671 to 984 residues) expressed in African Green Monkey CV-1 cells assessed as inhibition of aldosterone-induced transactivation activity after 20 hrs by luciferase reporter gene assay.

`Cc1c(C(=O)Nc2ccc(S(C)(=O)=O)cc2)cc(CCO)n1-c1ccc(Cl)cc1C(F)(F)F`: the IC50 was 3.7 nM.
